Data from patent US8362000B2, “Azetidinyl diamides as monoacylglycerol lipase inhibitors” (Janssen Pharmaceutica NV, priority 2009, dated 2013).
Changes are numbered by the printed parent chain. Read-outs that look alike come from different tables or passages of the source.

Columns and labels:
mutant MGL = target: T1, mutant MGL (Homo sapiens, UniProt Q99685, L169S/L176S); assay: MGL ThermoFluor assay - mutant; type: binding
T1 sequence (Q99685 1-303 L169S/L176S): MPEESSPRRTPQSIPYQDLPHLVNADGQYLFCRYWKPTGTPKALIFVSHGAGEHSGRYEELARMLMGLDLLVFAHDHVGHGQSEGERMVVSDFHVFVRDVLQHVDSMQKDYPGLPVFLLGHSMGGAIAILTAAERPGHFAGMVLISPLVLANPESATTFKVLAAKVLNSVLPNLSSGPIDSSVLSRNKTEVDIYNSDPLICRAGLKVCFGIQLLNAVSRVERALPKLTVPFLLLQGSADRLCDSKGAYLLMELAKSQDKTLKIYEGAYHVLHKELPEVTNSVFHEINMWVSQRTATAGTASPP

MGL = target: T2, MGL (Rattus norvegicus, UniProt Q8R431); assay: 2-AG accumulation assay in rat brain homogenate; type: biochemical; settings: rat brain homogenate; compound 1 μM; 2-AG accumulation as percent of vehicle; read-out: Rat Brain 2AG % VehCntrl (%) @ 1 μM
T2 construct: one g rat brain was homogenized using a Polytron homogenizer; from tissue; host or cells: rat brain homogenate
T2 sequence (Q8R431 1-303): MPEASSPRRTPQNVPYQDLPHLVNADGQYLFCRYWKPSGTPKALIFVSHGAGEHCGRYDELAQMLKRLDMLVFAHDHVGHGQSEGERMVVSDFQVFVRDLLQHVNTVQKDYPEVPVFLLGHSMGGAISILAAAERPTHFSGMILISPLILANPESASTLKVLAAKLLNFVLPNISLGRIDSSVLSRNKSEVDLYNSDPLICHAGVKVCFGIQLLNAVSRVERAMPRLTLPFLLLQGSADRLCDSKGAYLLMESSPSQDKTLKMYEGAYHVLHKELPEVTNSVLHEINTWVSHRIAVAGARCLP

[1] = target: T3, purified wild type MGL (wt-MGLL 6H-11-313) (Homo sapiens, UniProt Q99685)
T3 sequence (Q99685 1-303): T1 sequence (Q99685 1-303 L169S/L176S) with S169L, S176L

[2] = ThermoFluor thermal stability binding assay, read-out: MGL mutant ThermoFluor Kd
[3] = ThermoFluor concentration-response, read-out: MGL mutant ThermoFluor Kd
[4] = ThermoFluor, compound concentration measured by qNMR, read-out: MGL mutant ThermoFluor qKd (using qNMR conc.)
[5] = compound concentration measured by qNMR, read-out: MGL mutant ThermoFluor qKd (using qNMR conc.)
[6] = ThermoFluor, compound concentration measured by qNMR, read-out: MGL mutant ThermoFluor qKd (μM) (using qNMR conc.)

## O=C(c1ccc2c(c1)CCN(C(=O)c1cccs1)C2)N1CC(N2CCN(C(=O)c3nccs3)CC2)C1 [Cpd 665]
Mutant MGL; [2]
  Kd: 0.058 µM
MGL
  2-AG accumulation, % of vehicle control at 1 µM: 507%
[1]
  IC50: 13 nM

## O=C(c1ccc2c(c1)C1C=CCC1C(c1cccc(Cl)c1)N2)N1CC(N2CCN(C(=O)c3nccs3)CC2)C1 (stereo not drawn) [Cpd 667]
Mutant MGL; [3]
  Kd: 0.013 µM
MGL
  2-AG accumulation, % of vehicle control at 1 µM: 856%
[1]
  IC50: 14 nM

## O=C(c1ccc2c(c1)CCN(c1ncccn1)C2)N1CC(N2CCN(C(=O)c3nccs3)CC2)C1 [Cpd 668]
Mutant MGL; [2]
  Kd: 0.025 µM
MGL
  2-AG accumulation, % of vehicle control at 1 µM: 679%
[1]
  IC50: 15 nM

## O=C(c1ccc(N2CCCC2)cc1)N1CC(N2CCN(C(=O)c3nccs3)CC2)C1 [Cpd 669]
Mutant MGL; [3]
  Kd: 0.005 µM
MGL
  2-AG accumulation, % of vehicle control at 1 µM: 583%
[1]
  IC50: 15 nM

## CC(C)(C)c1ccc(C(=O)N2CC(N3CCN(C(=O)c4nccs4)CC3)C2)cc1 [Cpd 672]
Mutant MGL; [3]
  Kd: 0.016 µM
MGL
  2-AG accumulation, % of vehicle control at 1 µM: 268%
[1]
  IC50: 17 nM

## O=C(c1cscn1)N1CCN(C2CN(C(=O)c3sc4ccc(Cl)cc4c3C(F)(F)F)C2)CC1 [Cpd 673]
Mutant MGL; [3]
  Kd: 0.05 µM
MGL
  2-AG accumulation, % of vehicle control at 1 µM: 280%
[1]
  IC50: 17 nM

## O=C(c1nccs1)N1CCN(C2CN(C(=O)c3[nH]c4nc(C(F)(F)F)ccc4c3Br)C2)CC1 [Cpd 675]
Mutant MGL; [4]
  Kd: 0.025 µM
MGL
  2-AG accumulation, % of vehicle control at 1 µM: 330%
[1]
  IC50: 19 nM

## O=C(c1cc2cc(C(F)(F)F)ccc2s1)N1CCN(C2CN(C(=O)c3nccs3)C2)CC1 [Cpd 676, 1-[1-(1,3-Thiazol-2-ylcarbonyl)azetidin-3-yl]-4-{[5-(trifluoromethyl)-1-benzothiophen-2-yl]carbonyl}piperazine]
Mutant MGL; [3]
  Kd: 0.029 µM
MGL
  2-AG accumulation, % of vehicle control at 1 µM: 437%
[1]
  IC50: 21 nM

## O=C(c1ccc(Sc2cccc(Cl)c2)cc1)N1CC(N2CCN(C(=O)C(F)(F)F)CC2)C1 [Cpd 677]
Mutant MGL; [5]
  Kd: 0.432 µM
MGL
  2-AG accumulation, % of vehicle control at 1 µM: 141%
[1]
  IC50: 21 nM

## O=C(c1ccc2c(c1)Sc1ccccc1O2)N1CC(N2CCN(C(=O)c3ccc[nH]3)CC2)C1 [Cpd 678, 1-[1-(Phenoxathiin-2-ylcarbonyl)azetidin-3-yl]-4-(1H-pyrrol-2-ylcarbonyl)piperazine]
Mutant MGL; [3]
  Kd: 0.031 µM
MGL
  2-AG accumulation, % of vehicle control at 1 µM: 234%
[1]
  IC50: 22 nM

## O=C(c1ccc2c(c1)CCN(Cc1ccccc1)C2)N1CC(N2CCN(C(=O)c3nccs3)CC2)C1 [Cpd 680, 2-Benzyl-6-({3-[4-(1,3-thiazol-2-ylcarbonyl)piperazin-1-yl]azetidin-1-yl}carbonyl)-1,2,3,4-tetrahydroisoquinoline]
Mutant MGL; [2]
  Kd: 0.053 µM
MGL
  2-AG accumulation, % of vehicle control at 1 µM: 356%
[1]
  IC50: 25 nM

## Cn1ccc2cc(C(=O)N3CC(N4CCN(C(=O)c5nccs5)CC4)C3)cc(Br)c21 [Cpd 681]
Mutant MGL; [6]
  Kd: 0.067 µM
MGL
  2-AG accumulation, % of vehicle control at 1 µM: 406%
[1]
  IC50: 27 nM

## Cc1c(C(=O)N2CC(N3CCN(C(=O)c4nccs4)CC3)C2)[nH]c2ccc(Br)cc12 [Cpd 682]
Mutant MGL; [4]
  Kd: 0.014 µM
MGL
  2-AG accumulation, % of vehicle control at 1 µM: 390%
[1]
  IC50: 30 nM

## O=C(c1ccc(Oc2cccc(Cl)c2)nc1)N1CC(N2CCN(C(=O)c3nccs3)CC2)C1 [Cpd 683]
Mutant MGL; [3]
  Kd: 0.039 µM
MGL
  2-AG accumulation, % of vehicle control at 1 µM: 335%
[1]
  IC50: 31 nM

## Cc1c(C(=O)N2CC(N3CCN(C(=O)c4nccs4)CC3)C2)sc2cc(F)ccc12 [Cpd 684]
Mutant MGL; [2]
  Kd: 0.004 µM
MGL
  2-AG accumulation, % of vehicle control at 1 µM: 645%
[1]
  IC50: 31 nM

## O=C(c1ccc2c(c1)CCN(C(=O)C1CCC(C(F)(F)F)CC1)C2)N1CC(N2CCN(C(=O)c3nccs3)CC2)C1 (stereo not drawn) [Cpd 685]
Mutant MGL; [2]
  Kd: 0.067 µM
MGL
  2-AG accumulation, % of vehicle control at 1 µM: 756%
[1]
  IC50: 33 nM

## Cc1c(C(=O)N2CC(N3CCN(C(=O)c4nccs4)CC3)C2)sc2nc(C(F)(F)F)ccc12 [Cpd 686]
Mutant MGL; [6]
  Kd: 0.002 µM
MGL
  2-AG accumulation, % of vehicle control at 1 µM: 552%
[1]
  IC50: 39 nM

## CCCn1ccc2cc(C(=O)N3CC(N4CCN(C(=O)c5nccs5)CC4)C3)ccc21 [Cpd 687]
Mutant MGL; [3]
  Kd: 0.004 µM
MGL
  2-AG accumulation, % of vehicle control at 1 µM: 698%
[1]
  IC50: 44 nM

## Cc1c(C(=O)N2CC(N3CCN(C(=O)c4nccs4)CC3)C2)[nH]c2ccc(Cl)cc12 [Cpd 688, 5-Chloro-3-methyl-2-({3-[4-(1,3-thiazol-2-ylcarbonyl)piperazin-1-yl]azetidin-1-yl}carbonyl)-1H-indole]
Mutant MGL; [3]
  Kd: 0.046 µM
MGL
  2-AG accumulation, % of vehicle control at 1 µM: 373%
[1]
  IC50: 44 nM

## O=C(c1ccc2c(c1)CCN(C(=O)c1ccc[nH]1)C2)N1CC(N2CCN(C(=O)c3nccs3)CC2)C1 [Cpd 690]
Mutant MGL; [2]
  Kd: 0.104 µM
MGL
  2-AG accumulation, % of vehicle control at 1 µM: 367%
[1]
  IC50: 46 nM

## Cc1ccc2sc(C(=O)N3CC(N4CCN(C(=O)c5nccs5)CC4)C3)c(C(F)(F)F)c2c1 [Cpd 691, 1-(1-{[5-Methyl-3-(trifluoromethyl)-1-benzothiophen-2-yl]carbonyl}azetidin-3-yl)-4-(1,3-thiazol-2-ylcarbonyl)piperazine]
Mutant MGL; [3]
  Kd: 0.004 µM
MGL
  2-AG accumulation, % of vehicle control at 1 µM: 840%
[1]
  IC50: 46 nM

## O=C(c1ccc(OC(F)(F)F)c(Cl)c1)N1CC(N2CCN(C(=O)c3nccs3)CC2)C1 [Cpd 693]
Mutant MGL; [3]
  Kd: 0.06 µM
MGL
  2-AG accumulation, % of vehicle control at 1 µM: 299%
[1]
  IC50: 47 nM

## O=C(c1nccs1)N1CCN(C2CN(C(=O)c3sc4cc(F)ccc4c3C3CCC3)C2)CC1 [Cpd 695]
Mutant MGL; [3]
  Kd: 0.001 µM
MGL
  2-AG accumulation, % of vehicle control at 1 µM: 497%
[1]
  IC50: 57 nM

## Cc1c(C(=O)N2CC(N3CCN(C(=O)c4nccs4)CC3)C2)n(C)c2ccc(Cl)cc12 [Cpd 696]
Mutant MGL; [4]
  Kd: 0.063 µM
MGL
  2-AG accumulation, % of vehicle control at 1 µM: 444%
[1]
  IC50: 59 nM

## O=C(c1cscn1)N1CCN(C2CN(C(=O)c3sc4c(C(F)(F)F)c(F)ccc4c3Cl)C2)CC1 [Cpd 697]
Mutant MGL; [6]
  Kd: 0.024 µM
MGL
  2-AG accumulation, % of vehicle control at 1 µM: 431%
[1]
  IC50: 62 nM

## O=C(c1cscn1)N1CCN(C2CN(C(=O)c3sc4cc(Cl)ccc4c3C(F)(F)F)C2)CC1 [Cpd 699]
Mutant MGL; [3]
  Kd: 0.041 µM
MGL
  2-AG accumulation, % of vehicle control at 1 µM: 253%
[1]
  IC50: 69 nM

## COc1c(C(=O)N2CC(N3CCN(C(=O)c4cscn4)CC3)C2)sc2cc(C(F)(F)F)ccc12 [Cpd 700]
Mutant MGL; [5]
  Kd: 0.006 µM
MGL
  2-AG accumulation, % of vehicle control at 1 µM: 547%
[1]
  IC50: 72 nM

## Cn1cc(I)c2ccc(C(=O)N3CC(N4CCN(C(=O)c5nccs5)CC4)C3)cc21 [Cpd 701]
Mutant MGL; [3]
  Kd: 0.008 µM
MGL
  2-AG accumulation, % of vehicle control at 1 µM: 475%
[1]
  IC50: 77 nM

## O=C(Nc1ccc(C(=O)N2CC(N3CCN(C(=O)c4nccs4)CC3)C2)cc1)c1cc(F)ccc1Cl [Cpd 702]
Mutant MGL; [4]
  Kd: 0.207 µM
MGL
  2-AG accumulation, % of vehicle control at 1 µM: 848%
[1]
  IC50: 303 nM

## O=C(c1ccns1)N1CC(N2CCN(C(=O)c3cc4cc(C(F)(F)F)ccc4s3)CC2)C1 [Cpd 703, 1-[1-(Isothiazol-5-ylcarbonyl)azetidin-3-yl]-4-{[5-(trifluoromethyl)-1-benzothiophen-2-yl]carbonyl}piperazine]
Mutant MGL; [3]
  Kd: 0.05 µM
MGL
  2-AG accumulation, % of vehicle control at 1 µM: 346%
[1]
  IC50: 88 nM

## Cc1c(C(=O)N2CCN(C3CN(C(=O)c4cscn4)C3)CC2)sc2cc(C(F)(F)F)ccc12 [Cpd 705]
Mutant MGL; [3]
  Kd: 0.012 µM
MGL
  2-AG accumulation, % of vehicle control at 1 µM: 487%
[1]
  IC50: 99 nM

## O=C(c1cscn1)N1CC(N2CCN(C(=O)c3cc4cc(C(F)(F)F)ccc4s3)CC2)C1 [Cpd 716, 1-[1-(1,3-Thiazol-4-ylcarbonyl)azetidin-3-yl]-4-{[5-(trifluoromethyl)-1-benzothiophen-2-yl]carbonyl}piperazine]
Mutant MGL; [3]
  Kd: 0.04 µM
MGL
  2-AG accumulation, % of vehicle control at 1 µM: 326%
[1]
  IC50: 140 nM

## O=C(c1ccccc1)N1CCc2cc(C(=O)N3CC(N4CCN(C(=O)c5nccs5)CC4)C3)ccc2C1 [Cpd 736]
Mutant MGL; [2]
  Kd: 0.067 µM
MGL
  2-AG accumulation, % of vehicle control at 1 µM: 499%
[1]
  IC50: 273 nM

## O=C(c1cc[nH]c1)N1CC(N2CCN(C(=O)c3cc4cc(C(F)(F)F)ccc4s3)CC2)C1 [Cpd 741, 1-[1-(1H-Pyrrol-3-ylcarbonyl)azetidin-3-yl]-4-{[5-(trifluoromethyl)-1-benzothiophen-2-yl]carbonyl}piperazine]
Mutant MGL; [3]
  Kd: 0.2 µM
MGL
  2-AG accumulation, % of vehicle control at 1 µM: 182%
[1]
  IC50: 298 nM

## O=C(c1csnn1)N1CC(N2CCN(C(=O)c3cc4cc(C(F)(F)F)ccc4s3)CC2)C1 [Cpd 753]
Mutant MGL; [3]
  Kd: 0.515 µM
MGL
  2-AG accumulation, % of vehicle control at 1 µM: 173%
[1]
  IC50: 434 nM
